Experimental data published in ChEMBL document CHEMBL4311943, “3-[(1S,2S,3R)-2,3-Difluoro-1-hydroxy-7-methylsulfonylindan-4-yl]oxy-5-fluorobenzonitrile (PT2977), a Hypoxia-Inducible Factor 2α (HIF-2α) Inhibitor for the Treatment of Clear Cell Renal Cell Carcinoma” (J Med Chem, 2019).
Values after ≈ are worked out from the molar mass of the structure shown. Active and inactive are the calls of the source. The calls are words filed in the database; no cut-off is given here.

Assays:
Mus musculus = experiment: In vivo inhibition of HIF-2alpha in SCID Beige mouse xenografted with human 786-O cells assessed as reduction in cyclin D1 mRNA expression at 10 mg/kg, po administered twice daily via gavage for 3 days measured 12 hrs post-last dose by qRT-PCR analysis; assay type: functional, organism-based
[1] = Dose normalized AUClast in monkey at 10 mg/kg, po administered via gavage by UPLC-MS analysis; assay type: ADME, organism-based, Macaca mulatta; settings: rhesus monkey, in vivo
[2] = Dose normalized AUClast in CD-1 mouse at 10 mg/kg, po administered via gavage by UPLC-MS analysis; assay type: ADME, organism-based; settings: in vivo
[3] = Protein binding in mouse plasma at 10 uM measured after 4 hrs by LC-MS/MS analysis; assay type: ADME, cell-free; settings: read-out: PPB (converted)
[4] = Dose normalized AUClast in Beagle dog at 5 mg/kg, po administered via gavage by UPLC-MS analysis; assay type: ADME, organism-based, Canis lupus familiaris; settings: in vivo
UGT2B17 [5] = target: T1, UGT2B17 (Homo sapiens, UniProt O75795); experiment: Substrate activity at recombinant human UGT2B17 expressed in baculovirus infected insect cell membranes assessed as enzyme-mediated glucuronidation by measuring Km at 50 uM preincubated for 5 mins followed by UDPGA addition and measured after 60 mins by LC-MS/MS analysis; assay type: ADME
T1 sequence (O75795 whole entry): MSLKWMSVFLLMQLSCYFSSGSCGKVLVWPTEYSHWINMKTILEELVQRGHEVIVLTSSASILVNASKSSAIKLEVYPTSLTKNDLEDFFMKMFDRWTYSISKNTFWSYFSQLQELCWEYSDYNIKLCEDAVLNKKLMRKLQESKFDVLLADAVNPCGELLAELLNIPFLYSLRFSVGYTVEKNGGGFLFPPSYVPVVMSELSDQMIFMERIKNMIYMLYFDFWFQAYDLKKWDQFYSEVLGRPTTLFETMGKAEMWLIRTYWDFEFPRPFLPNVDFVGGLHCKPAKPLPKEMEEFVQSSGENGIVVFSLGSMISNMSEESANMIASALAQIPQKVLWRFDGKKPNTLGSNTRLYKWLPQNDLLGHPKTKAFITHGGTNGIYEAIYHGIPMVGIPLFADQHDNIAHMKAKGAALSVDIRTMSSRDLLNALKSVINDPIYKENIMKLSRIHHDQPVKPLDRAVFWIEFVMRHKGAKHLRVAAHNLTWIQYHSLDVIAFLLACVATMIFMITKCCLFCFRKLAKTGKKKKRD

Homo sapiens = experiment: In vivo inhibition of HIF-2alpha in patient with advanced solid tumor assessed as reduction in EPO expression at >500 ng/ml, po administered once daily; assay type: organism-based
[6] = target: UDP-glucuronosyltransferase 1A7 (Homo sapiens, UniProt Q9HAW7); experiment: Substrate activity at recombinant human UGT1A7 expressed in baculovirus infected insect cell membranes assessed as enzyme-mediated glucuronidation by measuring PT2639 formation at 50 uM preincubated for 5 mins followed by UDPGA addition and measured after 60 mins by LC-MS/MS analysis; assay type: ADME; settings: 1 h
Chain of UDP-glucuronosyltransferase 1A7 (Q9HAW7 whole entry): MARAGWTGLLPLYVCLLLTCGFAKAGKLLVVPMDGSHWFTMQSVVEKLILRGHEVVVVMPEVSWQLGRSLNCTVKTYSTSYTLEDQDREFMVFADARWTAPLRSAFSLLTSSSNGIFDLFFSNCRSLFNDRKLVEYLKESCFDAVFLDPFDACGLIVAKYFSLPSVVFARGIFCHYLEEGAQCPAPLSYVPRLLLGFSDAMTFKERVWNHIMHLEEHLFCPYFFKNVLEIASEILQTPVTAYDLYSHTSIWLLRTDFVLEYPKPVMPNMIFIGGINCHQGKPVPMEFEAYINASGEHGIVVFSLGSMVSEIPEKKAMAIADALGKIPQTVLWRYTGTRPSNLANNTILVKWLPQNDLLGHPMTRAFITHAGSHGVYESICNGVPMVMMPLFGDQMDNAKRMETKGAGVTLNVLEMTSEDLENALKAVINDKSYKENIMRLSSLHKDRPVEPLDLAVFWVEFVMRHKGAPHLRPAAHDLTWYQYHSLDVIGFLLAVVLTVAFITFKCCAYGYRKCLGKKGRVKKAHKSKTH

[7] = Thermodynamic aqueous solubility of the compound at pH 7.4; assay type: physicochemical; settings: buffer, read-out: Therm_solubility
[8] = target: T2, UDP-glucuronosyltransferase 2B17 (Homo sapiens, UniProt O75795); experiment: Substrate activity at recombinant human UGT2B17 expressed in baculovirus infected insect cell membranes assessed as enzyme-mediated glucuronidation by measuring Vmax per mg protein at 50 uM preincubated for 5 mins followed by UDPGA addition and measured after 60 mins by LC-MS/MS analysis; assay type: ADME; settings: 1 h
T2 sequence (O75795 whole entry): T1 sequence (O75795 whole entry)

UGT2B17 [9] = target: T1, UGT2B17; experiment: Substrate activity at UGT2B17 in human intestinal microsomes assessed as enzyme-mediated glucuronidation by measuring Km at 2 to 1000 uM preincubated for 5 mins followed by UDPGA addition and measured after 60 mins by LC-MS/MS analysis; assay type: ADME, Intestine
[10] = Protein binding in human plasma at 10 uM measured after 4 hrs by LC-MS/MS analysis; assay type: ADME, cell-free; settings: read-out: PPB (converted)
[11] = Dose normalized AUClast in Sprague-Dawley rat at 10 mg/kg, po administered via gavage by UPLC-MS analysis; assay type: ADME, organism-based; settings: in vivo
786-0 = experiment: Antitumor activity against human 786-O cells xenografted in SCID Beige mouse assessed as tumor regression at 10 mg/kg, po administered twice daily via gavage for 3 days measured 12 hrs post-last; assay type: functional, organism-based
[12] = Lipophilicity, log D of the compound at pH 7.4; assay type: physicochemical; settings: buffer
[13] = target: T2, UDP-glucuronosyltransferase 2B17; experiment: Substrate activity at UGT2B17 in human intestinal microsomes assessed as enzyme-mediated glucuronidation by measuring Vmax per mg protein at 2 to 1000 uM preincubated for 5 mins followed by UDPGA addition and measured after 60 mins by LC-MS/MS analysis; assay type: ADME, Intestine; settings: 1 h
[14] = Drug level in plasma of SCID Beige mouse xenografted with human 786-O cells at 10 mg/kg, po administered twice daily via gavage for 3 days measured 12 hrs post-last dose; assay type: ADME, organism-based
[15] = Drug metabolism in po dosed dog urine assessed as PT2639 formation; assay type: ADME, organism-based, Canis lupus familiaris; settings: in vivo
[16] = target: UDP-glucuronosyltransferase 1A3 (Homo sapiens, UniProt P35503); experiment: Substrate activity at recombinant human UGT1A3 expressed in baculovirus infected insect cell membranes assessed as enzyme-mediated glucuronidation by measuring PT2639 formation at 50 uM preincubated for 5 mins followed by UDPGA addition and measured after 60 mins by LC-MS/MS analysis; assay type: ADME; settings: 1 h
[17] = Cmin in patient with advanced solid tumor at 800 mg, po administered twice daily measured on day 15 measured after 12 hrs; settings: human, in vivo
[18] = Drug metabolism in human hepatocytes assessed as PT2639 formation by HPLC-UV analysis; assay type: ADME, cell-based, Hepatocyte
[19] = target: T3, Endothelial PAS domain-containing protein 1 (Homo sapiens, UniProt Q99814); experiment: Inhibition of N-(3-Chlorophenyl-4,6-t2)-4-nitrobenzo[c][1,2,5]oxadiazol-5-amine binding to his-tagged HIF-2alpha PAS-B domain (unknown origin) measured after 1 hr by scintillation proximity assay
T3 sequence (Q99814 whole entry, the tested form may be a part): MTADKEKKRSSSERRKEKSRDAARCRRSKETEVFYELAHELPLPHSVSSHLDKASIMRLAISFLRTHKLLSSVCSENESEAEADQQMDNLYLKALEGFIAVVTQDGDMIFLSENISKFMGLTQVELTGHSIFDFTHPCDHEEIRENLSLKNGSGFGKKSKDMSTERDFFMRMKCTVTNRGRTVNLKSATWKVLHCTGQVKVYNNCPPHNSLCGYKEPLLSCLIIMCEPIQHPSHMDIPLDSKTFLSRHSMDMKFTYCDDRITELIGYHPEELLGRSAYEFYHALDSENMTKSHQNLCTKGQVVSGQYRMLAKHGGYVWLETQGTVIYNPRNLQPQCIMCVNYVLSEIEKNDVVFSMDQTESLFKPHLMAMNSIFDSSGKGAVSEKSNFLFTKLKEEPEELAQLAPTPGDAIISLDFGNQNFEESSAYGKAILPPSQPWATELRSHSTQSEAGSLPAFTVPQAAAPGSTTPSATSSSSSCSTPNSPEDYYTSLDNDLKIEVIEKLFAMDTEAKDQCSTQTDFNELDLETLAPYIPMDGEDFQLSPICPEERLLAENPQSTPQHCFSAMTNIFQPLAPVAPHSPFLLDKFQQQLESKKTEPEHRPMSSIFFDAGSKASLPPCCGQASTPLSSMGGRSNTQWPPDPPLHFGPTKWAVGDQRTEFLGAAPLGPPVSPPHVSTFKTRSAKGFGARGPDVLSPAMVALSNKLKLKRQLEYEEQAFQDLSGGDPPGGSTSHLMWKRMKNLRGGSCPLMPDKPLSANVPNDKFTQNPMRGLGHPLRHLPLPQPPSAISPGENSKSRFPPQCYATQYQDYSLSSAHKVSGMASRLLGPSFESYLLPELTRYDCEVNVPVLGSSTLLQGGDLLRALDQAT

[20] = target: T3, Endothelial PAS domain-containing protein 1
Description: Inhibition of HIF-2alpha (unknown origin) expressed in human 786-O cells measured after 24 hrs by one-glo luciferase reporter gene assay

Beta-glucuronidase = Beta-glucuronidase (Escherichia coli (strain K12), UniProt P05804); experiment: Drug metabolism assessed as Escherichia coli beta-glucuronidase-mediated PT2385 formation after 30 mins by LC-MS/MS analysis; assay type: ADME; settings: isolated protein, 0.5 h
MRP2 (ABCC2) = MRP2 (ABCC2) (Homo sapiens, UniProt Q92887); experiment: Substrate activity at human MRP2 expressed in Sf9 membrane vesicles assessed as Km; assay type: ADME; settings: Sf9 membrane vesicles expressing human MRP2
Chain of MRP2 (ABCC2) (Q92887 whole entry): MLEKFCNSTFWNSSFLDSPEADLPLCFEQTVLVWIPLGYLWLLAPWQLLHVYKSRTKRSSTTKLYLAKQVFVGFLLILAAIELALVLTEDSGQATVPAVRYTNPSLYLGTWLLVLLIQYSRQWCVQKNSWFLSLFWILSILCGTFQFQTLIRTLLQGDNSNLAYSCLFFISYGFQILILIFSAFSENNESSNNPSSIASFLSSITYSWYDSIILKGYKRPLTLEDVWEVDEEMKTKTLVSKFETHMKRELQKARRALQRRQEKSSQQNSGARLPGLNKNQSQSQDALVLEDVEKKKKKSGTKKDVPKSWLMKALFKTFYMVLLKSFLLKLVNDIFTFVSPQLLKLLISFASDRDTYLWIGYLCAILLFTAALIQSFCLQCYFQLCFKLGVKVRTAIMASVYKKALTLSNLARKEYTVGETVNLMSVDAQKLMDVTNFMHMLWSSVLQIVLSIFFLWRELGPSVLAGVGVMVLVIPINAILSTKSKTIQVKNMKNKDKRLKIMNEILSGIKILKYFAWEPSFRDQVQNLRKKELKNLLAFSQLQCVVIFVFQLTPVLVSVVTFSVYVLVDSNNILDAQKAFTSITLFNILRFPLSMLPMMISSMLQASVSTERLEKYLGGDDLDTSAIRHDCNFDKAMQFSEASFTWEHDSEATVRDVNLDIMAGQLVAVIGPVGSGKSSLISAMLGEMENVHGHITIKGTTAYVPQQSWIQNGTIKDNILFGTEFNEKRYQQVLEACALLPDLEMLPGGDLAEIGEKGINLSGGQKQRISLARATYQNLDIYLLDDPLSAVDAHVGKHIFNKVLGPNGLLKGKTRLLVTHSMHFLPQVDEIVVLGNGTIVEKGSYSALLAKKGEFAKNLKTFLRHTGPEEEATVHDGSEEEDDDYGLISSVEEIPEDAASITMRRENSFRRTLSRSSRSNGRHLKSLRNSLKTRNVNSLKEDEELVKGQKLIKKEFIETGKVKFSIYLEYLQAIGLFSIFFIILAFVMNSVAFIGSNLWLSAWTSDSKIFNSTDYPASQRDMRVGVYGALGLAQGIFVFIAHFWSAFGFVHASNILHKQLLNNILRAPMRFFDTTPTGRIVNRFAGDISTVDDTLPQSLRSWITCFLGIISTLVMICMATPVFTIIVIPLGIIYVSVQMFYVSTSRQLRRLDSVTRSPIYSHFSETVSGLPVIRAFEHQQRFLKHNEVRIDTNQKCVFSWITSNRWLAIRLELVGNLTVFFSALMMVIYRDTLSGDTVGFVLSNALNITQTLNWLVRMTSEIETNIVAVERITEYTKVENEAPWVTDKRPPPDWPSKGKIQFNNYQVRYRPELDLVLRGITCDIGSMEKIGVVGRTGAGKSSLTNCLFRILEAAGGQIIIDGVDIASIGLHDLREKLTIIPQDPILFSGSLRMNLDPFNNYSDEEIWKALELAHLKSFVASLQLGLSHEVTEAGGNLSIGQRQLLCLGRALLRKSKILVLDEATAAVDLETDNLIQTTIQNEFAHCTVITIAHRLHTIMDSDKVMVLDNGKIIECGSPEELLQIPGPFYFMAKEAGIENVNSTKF

[21] = target: T4, ATP-binding cassette sub-family C member 2 (Homo sapiens, UniProt Q92887); experiment: Substrate activity at human MRP2 expressed in Sf9 membrane vesicles assessed as Vmax per mg protein; assay type: ADME
T4 sequence (Q92887 whole entry): as above

BCRP (ABCG2) = BCRP (ABCG2) (Homo sapiens, UniProt Q9UNQ0); experiment: Substrate activity at BCRP (unknown origin) expressed in MDCK2 cells assessed as efflux ratio of permeability at up to 300 uM; assay type: ADME, cell-based
Chain of BCRP (ABCG2) (Q9UNQ0 whole entry): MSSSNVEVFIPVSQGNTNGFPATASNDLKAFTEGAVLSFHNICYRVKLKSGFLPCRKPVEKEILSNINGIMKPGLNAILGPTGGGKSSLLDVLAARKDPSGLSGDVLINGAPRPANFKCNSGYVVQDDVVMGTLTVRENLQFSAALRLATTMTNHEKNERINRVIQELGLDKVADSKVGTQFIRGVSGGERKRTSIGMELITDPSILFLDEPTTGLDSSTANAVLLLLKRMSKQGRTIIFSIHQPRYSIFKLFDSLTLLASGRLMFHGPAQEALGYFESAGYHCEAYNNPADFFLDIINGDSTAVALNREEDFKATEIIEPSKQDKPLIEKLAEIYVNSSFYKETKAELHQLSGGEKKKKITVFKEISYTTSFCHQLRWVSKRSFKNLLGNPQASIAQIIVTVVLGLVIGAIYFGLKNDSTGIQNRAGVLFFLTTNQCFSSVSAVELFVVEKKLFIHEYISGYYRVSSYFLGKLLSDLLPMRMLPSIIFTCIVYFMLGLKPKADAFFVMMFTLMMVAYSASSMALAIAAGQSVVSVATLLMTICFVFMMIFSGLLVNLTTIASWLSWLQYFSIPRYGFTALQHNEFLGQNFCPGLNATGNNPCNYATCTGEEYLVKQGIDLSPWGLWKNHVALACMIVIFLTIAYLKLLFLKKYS

[22] = Drug level in human hepatocytes treated with PT2385 assessed as metabolite formation by HPLC-UV analysis; assay type: ADME, cell-based, Hepatocyte
P-gp (ABCB1) = P-gp (ABCB1) (Homo sapiens, UniProt P08183); experiment: Substrate activity at P-gp (unknown origin) expressed in MDCK2 cells assessed as efflux ratio of permeability at up to 300 uM; assay type: ADME, cell-based; settings: MDCK-MDR1
Chain of P-gp (ABCB1) (P08183 whole entry): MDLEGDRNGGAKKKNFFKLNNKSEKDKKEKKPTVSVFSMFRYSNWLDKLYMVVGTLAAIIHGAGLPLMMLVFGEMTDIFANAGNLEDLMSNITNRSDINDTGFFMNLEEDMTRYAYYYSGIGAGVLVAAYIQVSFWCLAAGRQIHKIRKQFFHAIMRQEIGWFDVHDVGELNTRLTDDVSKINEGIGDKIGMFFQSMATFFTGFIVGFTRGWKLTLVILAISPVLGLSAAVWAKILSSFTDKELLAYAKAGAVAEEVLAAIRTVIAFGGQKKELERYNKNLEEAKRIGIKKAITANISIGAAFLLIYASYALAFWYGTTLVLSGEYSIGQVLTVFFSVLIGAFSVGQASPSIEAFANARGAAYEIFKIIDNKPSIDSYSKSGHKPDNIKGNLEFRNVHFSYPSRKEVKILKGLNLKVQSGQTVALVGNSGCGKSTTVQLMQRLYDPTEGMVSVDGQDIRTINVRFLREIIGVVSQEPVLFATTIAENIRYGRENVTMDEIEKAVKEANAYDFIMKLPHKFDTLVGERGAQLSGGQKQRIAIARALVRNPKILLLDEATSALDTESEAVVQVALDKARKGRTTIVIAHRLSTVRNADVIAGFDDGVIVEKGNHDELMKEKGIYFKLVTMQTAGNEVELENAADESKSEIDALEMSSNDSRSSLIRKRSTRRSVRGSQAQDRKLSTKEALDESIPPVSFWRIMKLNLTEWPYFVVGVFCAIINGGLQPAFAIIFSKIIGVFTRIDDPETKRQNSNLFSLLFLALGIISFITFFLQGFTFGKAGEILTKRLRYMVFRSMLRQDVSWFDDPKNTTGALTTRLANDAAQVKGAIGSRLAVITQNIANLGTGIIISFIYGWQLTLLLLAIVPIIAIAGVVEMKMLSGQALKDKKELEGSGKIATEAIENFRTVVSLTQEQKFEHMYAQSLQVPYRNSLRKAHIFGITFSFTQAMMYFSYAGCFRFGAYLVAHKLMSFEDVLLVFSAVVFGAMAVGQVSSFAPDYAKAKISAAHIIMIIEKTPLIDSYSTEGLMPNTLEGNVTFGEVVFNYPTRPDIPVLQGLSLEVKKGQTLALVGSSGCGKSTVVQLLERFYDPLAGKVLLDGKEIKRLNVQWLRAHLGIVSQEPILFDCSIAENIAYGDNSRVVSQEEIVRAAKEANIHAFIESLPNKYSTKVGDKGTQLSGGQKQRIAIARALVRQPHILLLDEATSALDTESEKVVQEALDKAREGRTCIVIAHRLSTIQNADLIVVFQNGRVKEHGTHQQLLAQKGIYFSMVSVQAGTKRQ

[23] = target: T4, ATP-binding cassette sub-family C member 2; experiment: Ratio of compound effect for substrate activity at human MRP2 expressed in Sf9 membrane vesicles assessed as protein-mediated drug uptake in presence of ATP to compound effect for substrate activity at human MRP2 expressed in Sf9 membrane vesicles assessed as protein-mediated drug uptake in absence of ATP; assay type: ADME, cell membranes
[24] = Drug metabolism in iv or po dosed dog assessed as PT2385 formation; assay type: ADME, organism-based, Canis lupus familiaris; settings: in vivo

Structure (SMILES)	Km at 1 h, 50 µM (UGT2B17 [5]) [µM]	Vmax [8] [pmol/min]	Km at 1 h, up to 1000 µM (UGT2B17 [9]) [µM]	Vmax [13] [pmol/min]	IC50 [19] [nM]	other results
CS(=O)(=O)c1ccc(Oc2cc(F)cc(C#N)c2)c2c1[C@H](O)C(F)(F)C2	11	280	20	49	–	inhibition (Mus musculus): Active; AUClast/dose [1]: 3.1 µM·h; AUClast/dose [2]: 21 µM·h; fraction unbound at 4 h, 10 µM [3]: 0.29; AUClast/dose [4]: 7.2 µM·h; inhibition (INH) (Homo sapiens): Active; Drug metabolism [6]: Metabolite_Notdetected; solubility thermodynamic [7]: 15 µg/mL (≈ 39.1 µM); fraction unbound at 4 h, 10 µM [10]: 0.18; AUClast/dose [11]: 5.1 µM·h; Activity (786-0): Active; logD [12]: 2.2; concentration at 12 h [14]: 260 ng/mL; Drug metabolism [15]: Metabolite_Detected; Drug metabolism [16]: Metabolite_Notdetected; concentration at 12 h [17]: 860 ng/mL; Drug metabolism [18]: Metabolite_Detected
CS(=O)(=O)c1ccc(Oc2cc(F)cc(C#N)c2)c2c1[C@H](O)C[C@@H]2F	12	1.4	130	0.3	210	EC50 [20]: 460 nM
CS(=O)(=O)c1ccc(Oc2cc(F)cc(C#N)c2)c2c1[C@H](O)CC2	12	3.8	40	0.8	–	–
CS(=O)(=O)c1ccc(Oc2cc(F)cc(C#N)c2)c2c1[C@H](O)C[C@H]2F	–	–	–	–	> 10000	–
CS(=O)(=O)c1ccc(Oc2cc(F)cc(C#N)c2)c2c1[C@H](O)C(F)(F)[C@@H]2F	5.5	440	15	72	9	EC50 [20]: 4 nM
CS(=O)(=O)c1ccc(Oc2cc(F)cc(C#N)c2)c2c1[C@H](O)[C@@H](F)C2	15	50	26	11	–	–
CS(=O)(=O)c1ccc(Oc2cc(F)cc(C#N)c2)c2c1[C@H](O[C@@H]1O[C@H](C(=O)O)[C@@H](O)[C@H](O)[C@H]1O)C(F)(F)C2	–	–	–	–	–	Drug metabolism (Beta-glucuronidase): Metabolite_Detected; Km (MRP2 (ABCC2)): 97 µM; Vmax [21]: 1230 pmol/min; efflux ratio (BCRP (ABCG2)): < 2; Drug metabolism [22]: Metabolite_Detected; efflux ratio (P-gp (ABCB1)): < 2; Ratio [23]: 32; Drug metabolism [24]: Metabolite_Detected
CS(=O)(=O)c1ccc(Oc2cc(F)cc(C#N)c2)c2c1[C@H](O)[C@H](F)C2	15	14	28	2.1	–	–
